A word on the Ki: it is the equilibrium dissociation constant of an inhibitor or competing ligand from its target. Broadly, the LD50 is the dose expected to kill half of the subjects tested. A lower LD50 goes with greater toxicity.

The record followed here is patent US5030628A, “N-aryl-azetidinones, their preparation process and their use as elastase inhibitors” (Scientifique, priority 1988, dated 1991).

In data set [1] the target is porcine pancreatic elastase (PPE) (Sus scrofa, UniProt P00772). Kind of data set: Deactivation of porcine pancreatic elastase (PPE), Kitz and Wilson / Hart and O'Brian kinetics. The settings on record: for Ki / kinact / kinact/KI: 37° C., pH 8, 0.1M tris buffer; for Ki / kinact: Kitz and Wilson (5a, 5c, 5e, 10a), Hart and O'Brian (5a, 5'a); for Ki: read-out: Ki (dissociation constant of the enzyme-inhibitor complex), PPE; for kinact: read-out: ki (first order constant for the formation of the deactivated enzyme), PPE; for kinact/KI: read-out: ki/Ki (apparent second order constant characterizing the deactivation), PPE. It is filed as biochemical. How it is done: (§1) All the kinetic measurements are carried out at 37° C. and at a pH of 8 with a 0.1M tris buffer (PPE) or a 0.1M tris buffer, Brij 0.01%, NaN3 0.02% (HLE) (pH 7.5 for compound 5d). The method of Hart and O'Brian was published in 1973 in Biochemistry, Vol. 12, pp. 2940-2945 and that of Kitz and Wilson in 1962 in J. Biol. Chem., Vol. 237, pp. 3245-3249. In this way the first order constant ki is determined for the formation of the deactivated enzyme and the dissociation constant Ki of the enzyme-inhibitor complex. The ki: Ki ratio is the apparent second order constant characterizing the deactivation.
Chain of porcine pancreatic elastase (PPE) (P00772 27-266): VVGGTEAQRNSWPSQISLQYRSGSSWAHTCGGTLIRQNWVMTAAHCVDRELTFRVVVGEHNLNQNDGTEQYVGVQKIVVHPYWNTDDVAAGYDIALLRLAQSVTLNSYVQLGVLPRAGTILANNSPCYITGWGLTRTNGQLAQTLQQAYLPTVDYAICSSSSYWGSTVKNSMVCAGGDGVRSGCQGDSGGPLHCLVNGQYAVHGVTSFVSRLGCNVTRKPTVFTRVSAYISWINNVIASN

The next data set deals with trypsin. Briefly: Test as trypsin inhibitors under identical conditions. The format is biochemical. An excerpt:
(§2) The properties of the N-aryl-azetidinones obtained in examples 4, 5, 6, 7, 11, 17, 22 and 23 are checked and in particular their deactivation capacity for porcine pancreatic elastase (PPE) and human leucocytic elastase (HLE) using the methods of Kitz and Wilson for HLE in the case of compounds 5a, 5c, 5d, 5e, 5a' and 10a, the method of Kitz and Wilson for PPE in the case of compounds 5a, 5c, 5e and 10a and the method of Hart and O'Brian for PPE in the case of compounds 5a and 5'a. All the kinetic measurements are carried out at 37° C. and at a pH of 8 with a 0.1M tris buffer (PPE) or a 0.1M tris buffer, Brij 0.01%, NaN3 0.02% (HLE) (pH 7.5 for compound 5d).
(§3) On testing compounds 5, 5c, 5'a'under identical conditions as chymotrypsin or trypsin inhibitors, it can be seen that they have no action on these enzymes.

Data set [2] concerns elastase. Briefly: Effect on the degradation of elastin by elastase. It is filed as biochemical. The settings on record: for deactivation of elastase previously incubated with elastin: elastase previously incubated for 30 min. in the presence of an elastin excess (2mg). How it is done:
The effect of compound 5on the degradation of elastin, the natural substrate of elastase in the human organism was tested.

The target in data set [3] is T1, human leucocytic elastase (HLE) (Homo sapiens, UniProt P08246).
T1 sequence (P08246 30-267): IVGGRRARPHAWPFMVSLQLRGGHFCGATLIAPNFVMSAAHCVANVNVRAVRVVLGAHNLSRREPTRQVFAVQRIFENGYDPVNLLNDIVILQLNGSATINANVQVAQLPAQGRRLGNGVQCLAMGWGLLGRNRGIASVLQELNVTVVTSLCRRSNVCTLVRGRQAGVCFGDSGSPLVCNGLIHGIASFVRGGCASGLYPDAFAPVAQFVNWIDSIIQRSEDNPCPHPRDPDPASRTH
Kind of data set: Deactivation of human leucocytic elastase (HLE), Kitz and Wilson kinetics. The format is biochemical. The settings on record: for Ki / kinact / kinact/KI: 37° C., Brij 0.01%, NaN3 0.02%, Kitz and Wilson; for Ki: read-out: Ki (dissociation constant of the enzyme-inhibitor complex), HLE; for kinact: read-out: ki (first order constant for the formation of the deactivated enzyme), HLE. How it is done:
as §1

In the next data set the test system is chymotrypsin. Kind of data set: Test as chymotrypsin inhibitors under identical conditions. The format is biochemical.
Excerpt: as §2, §3

Data set [4] in a line: Acute toxicity in male and female mice. The following applies: mouse, in vivo. How it is done:
The acute toxicity of compound 5a researched on male and female mice exceeds 200 mg/kg.

In data set [5] the test system is elastase. Briefly: Properties with respect to elastase (substrate or inhibitor). It is filed as biochemical. The source says:
Thus, the nature of the R^3 substituent has a significant influence on the properties of the product obtained.

The mark [6] stands for this setting: pH 8, 0.1M tris buffer, read-out: ki/Ki (apparent second order constant characterizing the deactivation), HLE.

Structures are written as SMILES. Where two headings read alike, the source gives them in different places. A value given as a limit tells only on which side of the number the result lay.

For `O=C1N(c2ccccc2CCl)CC1(F)Br` (stereo not shown) [5'a, N-(2-chloromethylphenyl)-3-fluoro-3bromo-2-azetidinone], in data set [1], the “deactivation of PPE (in words)” value is recorded as “deactivate”, the inhibitory constant (Ki) was found to be 8.5 µM, the kinact was determined as 0.048 s⁻¹ and the kinact/KI was found to be 5650 M⁻¹ s⁻¹. Further, the action on trypsin result with trypsin is reported as “no action”. Moreover, in the data set with elastase [2], the “deactivation of elastase previously incubated with elastin” value (shortened to “deactivation … with elastin”) is recorded as “remain capable of deactivating elastase”. For the same molecule, the “deactivation of HLE (in words)” value in data set [3] is recorded as “deactivate”. For the same molecule, in data set [3] (pH 8, 0.1M tris buffer), the Ki came to 1170 µM and the kinact amounted to 0.37 s⁻¹. Moreover, the kinact/KI in data set [3] (setting [6]) turned out to be 316 M⁻¹ s⁻¹. In addition, the action on chymotrypsin entry with chymotrypsin is reported as “no action”.

Turning to `O=C1N(c2ccccc2CCl)CC1(F)F` [Compound 5a, N-(2-chloromethylphenyl)-3,3-difluoro-2-azetidinone], in data set [1], the “deactivation of PPE (in words)” value is given as “deactivate”, the Ki was determined as 30 µM, the kinact amounted to 0.031 s⁻¹ and the kinact/KI was found to be 1030 M⁻¹ s⁻¹. Besides, the LD50 in data set [4] is more than 200 mg/kg. In the data set with trypsin, the action on trypsin result is “no action”. Besides, the “deactivation … with elastin” value with elastase [2] is given as “remain capable of deactivating elastase”. Moreover, the “capacity of treated elastase to degrade elastin” value in the data set with elastase [2] (elastase previously treated by the compound) is “lost its capacity to degrade elastin”. In addition, in data set [3], the “deactivation of HLE (in words)” value is recorded as “deactivate”. In addition, in data set [3] (pH 8, 0.1M tris buffer), the Ki stood at 16.6 µM and the kinact came to 0.005 s⁻¹. In data set [3] (setting [6]), the kinact/KI is 301 M⁻¹ s⁻¹. Moreover, in the data set on chymotrypsin, the action on chymotrypsin result was “no action”.

Take `O=C1N(c2ccccc2CF)CC1(F)F` [Compound 5b, N-(2-fluoromethylphenyl)-3,3-difluoro-2-azetidinone]: in the data set with elastase [5], the elastase inhibition entry is “not inhibitors” and the elastase substrate result was “elastase substrates”.

Regarding `CS(=O)(=O)OCc1ccccc1N1CC(F)(F)C1=O` [Compound 5c, N-(2-methanesulphonyloxymethylphenyl)-3,3-difluoro-2-azetidinone], in data set [1], the “deactivation of PPE (in words)” value was “deactivate”, the Ki was determined as 48 µM, the kinact is 0.017 s⁻¹ and the kinact/KI was 354 M⁻¹ s⁻¹. The action on trypsin entry in the data set with trypsin was “no action”. Further, the “deactivation … with elastin” value in the data set with elastase [2] was “remain capable of deactivating elastase”. The “deactivation of HLE (in words)” value in data set [3] is “deactivate”. In data set [3] (pH 8, 0.1M tris buffer), the inhibitory constant (Ki) amounted to 500 µM and the kinact was 0.05 s⁻¹. The kinact/KI in data set [3] (setting [6]) amounted to 100 M⁻¹ s⁻¹. For the same molecule, the action on chymotrypsin entry with chymotrypsin is “no action”.

With `O=C1N(c2ccccc2CBr)CC1(F)F` [Compound 5d, N-(2-bromomethylphenyl)-3,3-difluoro-2-azetidinone], the kinact/KI in data set [3] (pH 7.5 for compound 5d, 0.1M tris buffer, read-out: ki/Ki (apparent second order constant characterizing the deactivation), HLE, pH 7.5) came out at 40 M⁻¹ s⁻¹.

In the case of `O=C1N(c2ccccc2CCl)CC1(Cl)Cl` [Compound 5e, N-(2-chloromethylphenyl)-3,3-di-chloro-2-azetidinone], the Ki was found to be 590 µM in data set [1] and 500 µM in data set [3] (pH 8, 0.1M tris buffer). Moreover, the kinact is 0.028 s⁻¹ in data set [1] and 0.03 s⁻¹ in data set [3] (pH 8, 0.1M tris buffer). Besides, the kinact/KI came out at 47 M⁻¹ s⁻¹ in data set [1] and 60 M⁻¹ s⁻¹ in data set [3] (setting [6]).

`O=C1N(c2ccc(CCl)cc2)CC1(F)F` [Compound 10a, N-(4-chloromethylphenyl)-3,3-difluoro-2-azetidinone]: in data set [1], the “deactivation of PPE (in words)” value is “deactivate”, the inhibition constant Ki amounted to 660 µM, the kinact was 0.075 s⁻¹ and the kinact/KI is 113 M⁻¹ s⁻¹. The “deactivation of HLE (in words)” value in data set [3] is recorded as “deactivate”. Further, the kinact/KI in data set [3] (setting [6]) is approximately 1.2 M⁻¹ s⁻¹.

With `O=C1N(c2ccc(CF)cc2)CC1(F)F` [Compound 10b, N-(4-fluoromethylphenyl)-3,3-difluoro-2-azetidinone], in the data set on elastase [5], the elastase inhibition entry is “not inhibitors” and the elastase substrate result is recorded as “elastase substrates”.
